{"source": "patent US20090297566A1", "about": "“Oxygen-impervious packaging with optional oxygen scavenger, stabilized thyroid hormone compositions and methods for storing thyroid hormone pharmaceutical compositions” (priority 2004, published 2009)", "key": {"[1]": {"test": "Effects of desiccation and oxygen on levothyroxine sodium raw material, forced degradation at 60°C, potency", "type": "physicochemical", "conditions": "for % Potency: raw material", "procedure": "(§1) This study investigated the effects of humidity and oxygen on the storage of levothyroxine sodium raw material under forced degradation conditions (60° C.).\n(§2) High temperature and humidity was known to contribute to potency loss of levothyroxine sodium. Thus, a desiccant was added to the packaging create a low moisture environment to test the effect of reduced humidity upon the shelf life of the product. This study also used a FreshPax Pharma O2 Absorbing Packet as an oxygen scavenger. This oxygen scavenger reduced the level of oxygen in the package to less than 1%. All samples were packaged in 40 cc HDPE bottles.\n(§3) • 1. 60 g of levothyroxine sodium raw material was selected. • 2. The levothyroxine was assayed in duplicate to establish the initial potency under laboratory conditions. • 4. The samples were preparation under laboratory conditions. • 5. 3 g was distributed to each of eighteen 40 cc bottles. • 6. 1 g desiccant was added to each of six bottles. • 7. A single FreshPax Pharma O2 Absorbing Packet was added to each of six bottles. • 8. The remaining six bottles were packaged without desiccant or a packet of FreshPax Pharma O2. • 9. The bottles were capped and sealed using a Compak Jr Sealer and appropriate CRC caps. • 10. All bottles were placed in a 60° C. oven. • 11. The samples were tested for potency, as described in Example 2 and water content at 1-week intervals for three weeks, with a previously unopened sample bottle being tested at each interval. Potency analysis was conducted in duplicate weighings from each bottle correcting for actual water content."}, "[2]": {"test": "Water content of levothyroxine sodium raw material during forced degradation at 60°C", "type": "physicochemical", "conditions": "for % H2O: raw material", "procedure": "as §1, §2, §3"}, "[3]": {"conditions": "raw material with FreshPax Pharma O2 packet, 60°C, three weeks"}, "[4]": {"conditions": "3 g in 40 cc HDPE bottle, Initial"}, "[5]": {"conditions": "B: FreshPax Pharma O2 packet, 60°C, 1 wk"}, "[6]": {"conditions": "B: FreshPax Pharma O2 packet, 60°C, 2 wk"}, "[7]": {"conditions": "B: FreshPax Pharma O2 packet, 60°C, 3 wk"}}, "data": [{"smiles": "N[C@@H](Cc1cc(I)c(Oc2cc(I)c(O)c(I)c2)c(I)c1)C(=O)[O-].[Na+]", "note": "[Levothyroxine Sodium, 3,3′,5,5′-tetraiodo-L-thyronine sodium salt]", "values": [{"measurement": "stability", "setting": "[1]; raw material packaged with FreshPax Pharma O2 packet, 60°C, three weeks", "result": "stable"}, {"measurement": "potency loss", "setting": "[1]; raw material with 1 g silica gel desiccant, 60°C, three-week study", "result": 2.8, "unit": "%"}, {"measurement": "potency loss", "setting": "[1]; [3]", "result": 0.4, "unit": "%"}, {"measurement": "% Potency", "setting": "[1]; [4]", "result": 99.2, "unit": "%"}, {"measurement": "% Potency", "setting": "[1]; A: 1 g silica gel, 60°C, 1 wk", "result": 97.6, "unit": "%"}, {"measurement": "% Potency", "setting": "[1]; A: 1 g silica gel, 60°C, 2 wk", "result": 97.2, "unit": "%"}, {"measurement": "% Potency", "setting": "[1]; A: 1 g silica gel, 60°C, 3 wk", "result": 96.4, "unit": "%"}, {"measurement": "% Potency", "setting": "[1]; [5]", "result": 99.8, "unit": "%"}, {"measurement": "% Potency", "setting": "[1]; [6]", "result": 99.5, "unit": "%"}, {"measurement": "% Potency", "setting": "[1]; [7]", "result": 98.8, "unit": "%"}, {"measurement": "% Potency", "setting": "[1]; C: API alone, 60°C, 1 wk", "result": 99.6, "unit": "%"}, {"measurement": "% Potency", "setting": "[1]; C: API alone, 60°C, 2 wk", "result": 98, "unit": "%"}, {"measurement": "% Potency", "setting": "[1]; C: API alone, 60°C, 3 wk", "result": 97.3, "unit": "%"}, {"measurement": "loss of water content", "setting": "[2]; raw material with 1 g silica gel desiccant, 60°C, within the first week", "result": "over 1%"}, {"measurement": "water content deviation from original water content", "setting": "[2]; [3]", "result": "≤ 1", "unit": "%"}, {"measurement": "% H2O", "setting": "[2]; [4]", "result": 9.9, "unit": "%"}, {"measurement": "% H2O", "setting": "[2]; A: 1 g silica gel, 60°C, 1 wk", "result": 8.5, "unit": "%"}, {"measurement": "% H2O", "setting": "[2]; A: 1 g silica gel, 60°C, 2 wk", "result": 8.7, "unit": "%"}, {"measurement": "% H2O", "setting": "[2]; A: 1 g silica gel, 60°C, 3 wk", "result": 8.8, "unit": "%"}, {"measurement": "% H2O", "setting": "[2]; [5]", "result": 9.1, "unit": "%"}, {"measurement": "% H2O", "setting": "[2]; [6]", "result": 9.6, "unit": "%"}, {"measurement": "% H2O", "setting": "[2]; [7]", "result": 9.6, "unit": "%"}, {"measurement": "% H2O", "setting": "[2]; C: API alone, 60°C, 1 wk", "result": 9.4, "unit": "%"}, {"measurement": "% H2O", "setting": "[2]; C: API alone, 60°C, 2 wk", "result": 8.9, "unit": "%"}, {"measurement": "% H2O", "setting": "[2]; C: API alone, 60°C, 3 wk", "result": 8.8, "unit": "%"}]}]}
